What was measured:
[1] = test system: FGF receptor on BHK cells; assay: Competition for 125I-FGF-2 binding to baby hamster kidney (BHK) cells; conditions: 50 pM 125I-FGF-2; compared with FGF-2
Method: FGF-2LI and FGF-2LA are tested for their capacity to compete for the binding of ^125 I-FGF-2 (Amersham Corp.) to baby hamster kidney (BHK) cells, which express high numbers of FGF receptor. The assay employed is described by Moscatelli (J. Cell. Physiol. 131: 123-130 (1987)). Briefly stated, BHK cells plated on 24-well plates are incubated with 50 pM ^125 I-FGF-2 with serial dilutions of unlabelled FGF-2, FGF-2LI or FGF-2LA loop mutants at room temperature for 1 hour or at 4° C. for 2 hours. The cells are then incubated at 4° C. for 30 minutes, washed twice with phosphate-buffered saline and treated with 20 mM HEPES (N-2-hydroxyethyl-piperazine-N'-2-ethanesulfonic acid), pH 7.5, containing 2M NaCl to remove ^125 I-FGF-2 bound to low affinity heparin sulfate binding sites. Receptor bound ^125 I-FGF-2 is recovered by treatment of the cells with 0.5% Triton X-100 in 0.1M sodium phosphate, pH 8, and counted in a γ-counter. Assays are conducted in duplicate.

[2] = test system: cell-associated urokinase-type plasminogen activator (uPA) activity in ABAE cells; assay: Urokinase-type plasminogen activator induction in ABAE cells; assay type: cell-based, bovine; conditions: 24 hours, compared with FGF-2
Method: Urokinase-type plasminogen activator induction by the FGF mutants is evaluated. Adult bovine aortic endothelial (ABAE) cells are seeded at 20,000 cells/well in 96-well plates and maintained in DMEM containing 10% calf serum (Hyclone, Logan, Utah) supplemented with penicillin (100 units/ml), streptomycin (100 μg/ml) and L-glutamine (2 mM) and different concentrations of FGF-2 or mutants. After 24 hours, the cells are washed with phosphate-buffered saline and lysed in 60 mM Tris-HCl, pH 8.5, containing 0.05% Triton® X-100. Cell-associated urokinase-type plasminogen activator (uPA) activity is measured as described by Presta, et al., cited above, using the plasmin chromogenic substrate D-norleucyl-hexahydrotyrosyllysine p-nitroanilide acetate (American Diagnostics, Greenwich, Conn.). Cell-associated protein concentrations are determined using Coomassie blue binding to protein. The results are plotted in FIG. 5.

ABAE cells = assay: In vitro angiogenesis: capillary-like tube formation by ABAE cells on collagen gel; assay type: cell-based, bovine; conditions: ABAE cells on type I collagen gel, 48 hours; compared with wild-type FGF-2
Method: In vitro anglogenesis evaluations are made by observing whether the mutants induce capillary-like structures in ABAE cells cultured on a 3-dimensionalcollagen gel. Three-dimensional collagen gel plates (24-well) are prepared by adding 0.5 ml chilled solution of 0.7 mg/ml rat-tail type I collagen (Becton Dickinson Labwares, Bedford, Mass.) containing DMEM and adjusting to neutral pH with NaHCO3 to each well. After formation of collagen gel (about 1-2 mm thickness), ABAE cells are seeded at 50,000 cells/well. The cultures are maintained at 37° C. in DMEM containing 10% calf serum (Hyclone, Logan, Utah) supplemented with penicillin (100 units/ml), streptomycin (100 μg/ml) and L-glutamine (2 mM) until the cultures reach confluency, usually in 5 days by which time the cells form a monolayer on the gel. The medium is then replaced with fresh medium containing different concentrations of FGF-2 or mutants. […]
The abundance of the capillary-like structures formed by ABAE cells is analyzed by using a Kontron IBAS Image Analyzer assisted with a Hamamatsu C2400 video camera and a Zeiss Axioshop microscope. […] The extent of in vitro angiogenesis is then measured as a percentage of the white areas. […] Three to four areas of each well are examined by image analysis and the mean value and standard deviation are determined. […]

[3] = test system: soluble FGF receptor 1 (FGFR-1; flg); assay: Competition binding to soluble FGFR1 (displacement of 125I-FGF-2); design: species or system murine; conditions: 200 ng/ml heparin
Method: (§1) Binding of FGF proteins to different FGF receptors are determined in this example, by measuring the degree of competition for binding to different types of FGF-receptor proteins between a radioiodinated FGF protein and various unlabelled proteins, or by the direct binding of radioiodinated FGF's to various receptor proteins. Binding studies are confirmed by chemical cross-linking of the radioiodinated FGF to soluble receptors in the presence and absence of excess unlabelled FGF.
(§2) Soluble FGF receptor proteins are constructed by cloning of the extracellular region of murine FGF receptor 1 (FGFR-1; flg), FGF receptor 2 (FGFR-2; bek) or the KGF receptor (FGFR(IIIb); K-sam) into the alkaline phosphatase-tag expression vector, which encodes for a secreted form of placental alkaline phosphatase (AP). The FGF receptor alkaline phosphatase (FRAP) plasmids are cotransfected into NIH 3T3 cells by electroporation with a selectable neomycin resistance gene. Clonies are selected in G418 (600 μg/ml) and screened for secreted AP enzyme activity in the conditioned medium. Clones of each receptor which produced a high level of AP activity (2 to 4 A405 units/min/ml) are then used to produce conditioned medium for binding assays.
(§3) Components of the soluble receptor binding reaction mixture include FRAP-conditioned medium (0.24 OD units/min), 2 ng/ml^125 I-FGFs and 200 ng/ml heparin. The FGF:heparin:FRAP terniary complex is immunoprecipitated with 20 μl of a 1:1 slurry of anti-AP monoclonal antibodies coupled to protein A Sepharose®. All components are mixed at room temperature. The total volume is adjusted to 200 μl by addition of DMEM containing 0.1% bovine serum albumin. Binding is allowed to proceed for 1 to 2 hours at 24° C., after which time bound receptor complex or the ligand is recovered by centrifugation at 4° C. (10 s at 2,000×g). The pelleted material is washed twice with 500 μl of an ice cold buffer containing HEPES (20 mM), NaCl (150 mM), glycerol (10%) and Triton® X-100 (1%). ^125 I-FGF binding is quantitated by counting of the samples in a gamma counter (LKB). Alternatively, AP enzyme activity of the FRAP protein is determined by transferring the FRAP receptor bound to […] to a flat-bottom microtiter plate in a volume of 50 μl of PBS. The reaction is initiated by addition of substrate (50 μl of 2× solution of AP assay buffer containing 2M diethanoiamine, 1 mM MgCl2, 20 mM homoarginine and 12 mM p-nitrophenyl phosphate). The reaction is followed at room temperature at 405 nm in a kinetic microplate reader.

[4] = test system: FGFR2(IIIb) (FGF-7 or KGF receptor); assay: Competition binding to soluble FGFR2(IIIb) (displacement of 125I-FGF-7); design: species or system murine
Method: as §1, §2, §3

Row | Substance | Capacity to compete with 125I-FGF-2 binding to FGF receptors on BHK cells [1] | Capability to induce urokinase-type plasminogen activator [2] | Induction of tube formation (capillary-like structures) (ABAE cells) | Binding to soluble FGFR1 (competition with 125I-FGF-2) [3] | Binding to FGFR2(IIIb), times less than that of FGF-7 or FGF-1 [4] | Binding to soluble FGFR2(IIIb) (competition with 125I-FGF-7) ([4]; 200 ng/ml heparin)
1 | FGF-2LA: human FGF-2 with loop residues 118-122 replaced by Lys-Lys-His-Ala-Glu-Lys-His from bovine FGF-1 (SEQ ID NO 16) (KKHAEKH; printed: Lys-Lys-His-Ala-Glu-Lys-His) | similar | significantly reduced | comparable with the wildtype | bind equally well | about 5 times | –
2 | FGF-2LI: human FGF-2 with loop residues 118-122 replaced by Ala-Gln-Phe-Pro-Asn from human interleukin-1β (SEQ ID NO 15) | similar | significantly reduced | much less than that by wild-type FGF-2 | bind equally well | – | do not bind

Source: patent US5491220A, “Surface loop structural analogues of fibroblast growth factors” (Yeda Research and Development Co., Ltd., priority 1994, dated 1996)
